Laboratory results taken from publication PMC3486876 (PLoS Neglected Tropical Diseases, 2012).
Where “and” joins values, the source holds several entries; their conditions need not be identical. Identical values can stand only once. Like-named read-outs stand apart in the source and are kept apart here. Marks after values point to notes of the source that are not given here.

How the values were obtained:
P-gp-deficient dogs = conditions: cited from earlier work
Mdr1ab(−/−) mice = assay: Neurological symptoms after subcutaneous administration; type: in vivo, mouse; conditions: for Neurological signs: 0.46 µmol/kg SC; for Start of neurotoxic signs (lethargy, tremors and/or ataxia): dose rates close to the respective LD50 (0.46 IVM, 2.3 MOX µmol/kg)
Description: (§1) For acute toxicity experiments, Mdr1ab(−/−) mice (2–8 per dose rate) were injected subcutaneously with drug solutions at dose rates ranging from 0.1–1.75 mg/kg bw (0.11–2.0 µmol/kg bw) for IVM and 0.2–8.2 mg/kg bw (0.31–12.9 µmol/kg bw) for MOX. […] Mice were euthanized when severe tremors or ataxia were noted.

[1] = Acute toxicity (14-day survival, LD50) after subcutaneous administration; conditions: mouse, in vivo, sc, Mdr1ab(−/−) mice, survival over 14 days, determined graphically
Description: as §1

Mdr1a-deficient mice = test system: Mdr1a-deficient mice; parameters: method as in PMID 7910522; conditions: Mdr1a-deficient mice mutated on only the abcb1a gene; cited from earlier work
[2] = test system: purinergic (ATP) (cationic) receptors; conditions: cited from earlier work
wild-type mice = conditions: cited from earlier work
[3] = molecular target: T1, rat α1β2γ2 GABA(A) receptor (Rattus norvegicus, UniProt P18508+P62813+P63138); assay: Two-electrode voltage-clamp of GABA(A) receptor expressed in Xenopus laevis oocytes; type: cell-based; conditions: for Emax: read-out: Emax (maximum potentiation relative to GABA alone)
T1 construct: expressed in transfected cells; host or cells: Xenopus laevis oocytes injected with cRNA (constructs a gift from Dr Erwin Sigel)
Description: Oocytes from X. laevis, injected with foreign cDNA of the receptor of choice, are a commonly used tool for studying the activity of plasma membrane receptors. […] Isolation of oocytes from the frogs, defolliculation, culturing of the oocytes and injection of cRNA were performed as described previously. Oocytes were injected with 46 nl of RNA solution, with RNA coding for α1, β2 and γ2 subunits at a ratio of 10∶10∶50 nM [30]. The injected oocytes were incubated in modified Barth's solution [90 mM NaCl, 3 mM KCl, 0.82 mM MgSO4, 0.41 mM CaCl2, 0.34 mM Ca(NO3)2, 100 U/ml penicillin, 100 µg/ml streptomycin and 100 µg/ml kanamycin, 5 mM HEPES pH 7.6] at 18°C for approximately 36 h before the measurements to ensure the expression of a functional receptor.
Electrophysiological experiments were performed by the two-electrode voltage-clamp method. Measurements were done in ND96 medium containing 96 mM NaCl, 2 mM KCl, 1 mM MgCl2, 1.8 mM CaCl2 and 5 mM HEPES, pH 7.5, at a holding potential of −80 mV. Currents were measured using a custom-made two-electrode voltage clamp amplifier in combination with an XY recorder (90% response time, 0.1 s). The intracellular electrodes were filled with 3 M KCl (resistance of 0.5–1.5 MΩ). […] The perfusion solution (6 ml/min) was applied through a glass capillary with an inner diameter of 1.35 mm. […] The modulatory compounds (IVM and MOX) were first dissolved in DMSO at 20 mM and then diluted in ND96 to the final concentration.
Concentration ranges used were: IVM: 0.5 nM–10 µM; MOX: 1 nM–5 µM.
A washout period of 5 min between each agonist application was introduced, allowing receptors to fully recover from desensitization. The perfusion system was cleaned, after application of MLs, between each experiment by washing with 10% DMSO in ND96 to avoid contamination. Three or four different batches of oocytes were used to collect data for each analysis.
All experiments were conducted at least in triplicate. Differences in ML tissue concentrations were analyzed by one-way analysis of variance (ANOVA) with a Tukey post-test and are expressed as mean ± standard deviation (S.D.). […] Half-maximal concentrations (EC50), slope factors (Hill coefficients, nH) and maximal potentiation values for ML-induced activation of current were obtained using the Hill equation. Statistical analysis was performed using unpaired t-tests with Welch's correction to allow for differences in variances (GraphPad Instat, San Diego, CA, USA). Differences were considered statistically significant when p<0.05.

acetylcholine receptors = test system: acetylcholine receptors; parameters: method as in PMID 17707779; conditions: cited from earlier work
[4] = no reference given; cited from earlier work
[5] = Drug concentration in plasma and brain (HPLC) in Mdr1ab(−/−) mice; type: in vivo, mouse; conditions: 0.23 µmol/kg SC
Description: For drug plasma concentration and brain accumulation assessment, Mdr1ab(−/−) mice were injected subcutaneously with an equivalent molar dose rate for both MLs in Mdr1ab(−/−) mice (6 animals per group): 0.23 µmol/kg, corresponding to 0.20 mg/kg and 0.15 mg/kg for IVM and MOX, respectively. Mice were sacrificed at 2 or 24 h after treatment.
(§2) Mice were anesthetized 2 h or 24 h after administration with isoflurane and heparinized blood samples were collected from the orbital sinus vein. Immediately thereafter, mice were sacrificed by cervical dislocation and brains were rapidly removed. Blood samples were centrifuged at 1500 g for 10 min at 4°C and the plasma fraction was collected and stored at −20°C until analysis. The brains were washed in saline solution and frozen at −20°C until analysis.
(§3) ML concentrations were determined in plasma and brain by high performance liquid chromatography (HPLC) with fluorescence detection according to previously described and validated methods, [25]. In brief, plasma and tissues were homogenised in acetonitrile (1∶1 v/v or 1∶2 v/w, respectively). Samples were centrifuged at 2000 g and the supernatant applied to a Supelco C18 cartridge (Supelco Inc., Bellefonte, PA, USA) by using automated solid phase extraction (SPE). […] The eluate was evaporated and the dry extract was processed to obtain a fluorophore derivative by dissolving it in 1N-methylimidazole and trifluoroacetic anhydride solutions. Samples were injected into the HPLC system (PU980 pump, Jasko, Tokyo, Japan; 360 automatic injector, Kontron, Paris, France; RF-551 fluorescence detector, Shimadzu, Kyoto, Japan). For IVM and MOX a Supelcosil LC18 column (250×4.6 mm, 5 µm, Supelco, Bellefonte, PA, USA) was used with acetic acid (0.2% in water)∶methanol∶acetonitrile (4∶40∶56, v/v/v) as mobile phase.

P-gp = test system: P-gp; parameters: method as in PMID 17134887; conditions: cited from earlier work
[6] = Drug concentration in plasma and brain (HPLC) in wild-type mice; type: in vivo, mouse; conditions: 24 h post-treatment; for Brain concentration at LD50: determined graphically from Figure 3B; for Brain-to-plasma ratio (slope of brain vs plasma concentration): increasing doses
Description: as §2, §3

humans = test system: humans; parameters: method as in clinicaltrials.gov NCT00856362, NCT00300768, NCT00790998; conditions: approximately 1,700 people; ref clinicaltrials.gov NCT00856362, NCT00300768, NCT00790998; cited from earlier work
[7] = Drug concentration in plasma and brain (HPLC) in Mdr1ab(−/−) mice; type: in vivo, mouse; conditions: 24 h post-treatment; for Brain concentration at LD50: determined graphically from Figure 3A; for Brain-to-plasma ratio (slope of brain vs plasma concentration): increasing doses
[8] = oral administration, ref 20 (IVM), 21 (MOX)
[9] = potentiation of current evoked by 2 µM GABA (EC10)

T1 sequence (P62813 28-455): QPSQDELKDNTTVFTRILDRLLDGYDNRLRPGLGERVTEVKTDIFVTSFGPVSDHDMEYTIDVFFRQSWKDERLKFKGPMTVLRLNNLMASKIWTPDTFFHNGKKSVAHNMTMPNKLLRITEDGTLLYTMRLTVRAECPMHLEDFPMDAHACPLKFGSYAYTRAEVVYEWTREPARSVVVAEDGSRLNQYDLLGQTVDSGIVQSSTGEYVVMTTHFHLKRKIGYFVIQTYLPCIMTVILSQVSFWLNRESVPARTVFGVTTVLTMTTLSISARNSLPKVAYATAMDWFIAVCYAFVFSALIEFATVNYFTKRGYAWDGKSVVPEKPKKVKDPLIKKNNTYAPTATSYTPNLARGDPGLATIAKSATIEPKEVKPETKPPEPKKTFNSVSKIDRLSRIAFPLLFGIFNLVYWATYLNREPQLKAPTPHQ
T1 sequence (P63138 25-474 limits assumed): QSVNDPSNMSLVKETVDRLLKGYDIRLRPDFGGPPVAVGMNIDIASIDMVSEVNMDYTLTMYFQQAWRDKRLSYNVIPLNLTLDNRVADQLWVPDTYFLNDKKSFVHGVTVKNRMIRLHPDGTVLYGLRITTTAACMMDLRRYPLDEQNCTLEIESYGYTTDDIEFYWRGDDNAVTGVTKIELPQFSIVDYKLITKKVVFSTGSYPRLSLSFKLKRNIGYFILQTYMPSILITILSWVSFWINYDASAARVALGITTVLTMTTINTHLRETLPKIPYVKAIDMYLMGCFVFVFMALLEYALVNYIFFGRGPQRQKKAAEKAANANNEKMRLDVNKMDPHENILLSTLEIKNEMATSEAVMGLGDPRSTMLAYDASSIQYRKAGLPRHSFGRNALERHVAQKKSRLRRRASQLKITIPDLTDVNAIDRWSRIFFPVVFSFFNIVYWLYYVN
T1 sequence (P18508 39-466): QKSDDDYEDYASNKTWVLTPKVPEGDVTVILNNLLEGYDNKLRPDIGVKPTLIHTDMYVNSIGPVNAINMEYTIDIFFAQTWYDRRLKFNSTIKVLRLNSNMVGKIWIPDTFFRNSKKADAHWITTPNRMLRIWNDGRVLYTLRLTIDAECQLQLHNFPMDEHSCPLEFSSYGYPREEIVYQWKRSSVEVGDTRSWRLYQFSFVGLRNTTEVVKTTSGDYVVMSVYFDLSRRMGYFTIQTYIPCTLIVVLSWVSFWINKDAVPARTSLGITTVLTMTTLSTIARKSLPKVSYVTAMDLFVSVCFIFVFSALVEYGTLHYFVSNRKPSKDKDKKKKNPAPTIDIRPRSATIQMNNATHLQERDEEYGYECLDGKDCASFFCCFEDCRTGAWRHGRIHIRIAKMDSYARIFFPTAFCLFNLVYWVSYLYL

## CCC(C)[C@H]1O[C@]2(CC[C@@H]1C)C[C@@H]1C[C@@H](C/C=C(\C)[C@@H](O[C@H]3C[C@H](OC)[C@@H](O[C@H]4C[C@H](OC)[C@@H](O)[C@H](C)O4)[C@H](C)O3)[C@@H](C)/C=C/C=C3\CO[C@@H]4[C@H](O)C(C)=CC(C(=O)O1)[C@]34O)O2 (some centres unmarked) [Ivermectin]
P-gp-deficient dogs; MDR1-deficient dogs, therapeutic dose 0.2 mg/kg
  Signs of neurotoxicosis: severe signs of neurotoxicosis
Mdr1ab(−/−) mice; 0.11 µmol/kg SC
  Behaviour of mice: no changes in the behaviour of mice were observed
Mdr1ab(−/−) mice; 0.11 µmol/kg SC, 1 h post-treatment (ditto marks to 14 d)
  Neurological symptoms observed: Visually normal
Mdr1ab(−/−) mice; 0.40 µmol/kg SC, 1 h post-treatment (ditto marks to 5 h)
  Neurological symptoms observed: Visually normal
Mdr1ab(−/−) mice; 0.40 µmol/kg SC, 6 h post-treatment
  Neurological symptoms observed: Lethargy
Mdr1ab(−/−) mice; 0.40 µmol/kg SC, 7 h post-treatment, these mice euthanized
  Neurological symptoms observed: 2/5 Ataxia ^c/tremor ^d ^†
Mdr1ab(−/−) mice; 0.40 µmol/kg SC, 12 h post-treatment
  Neurological symptoms observed: 3/5 Sleepiness
Mdr1ab(−/−) mice; 0.40 µmol/kg SC, 1 d post-treatment (ditto marks to 14 d)
  Neurological symptoms observed: Visually normal
Mdr1ab(−/−) mice; 6 h post-administration
  Neurological signs: severe neurotoxic signs
Mdr1ab(−/−) mice; just after administration
  Neurological signs: hyperactivity
Mdr1ab(−/−) mice; 0.69 µmol/kg SC, 2 h post-treatment
  Neurological symptoms observed: Rapid breathing
Mdr1ab(−/−) mice; 0.69 µmol/kg SC, 5 h post-treatment
  Neurological symptoms observed: Ataxia ^c
Mdr1ab(−/−) mice; 0.69 µmol/kg SC, 6 h post-treatment, mice euthanized
  Neurological symptoms observed: Lethargy ^†
Mdr1ab(−/−) mice
  Start of neurotoxic signs (lethargy, tremors and/or ataxia): 6 h
[1]
  LD50 at 14 days: 0.4 mg/kg and 0.46 µmol/kg
Mdr1a-deficient mice
  LD50: 0.6–0.8 µmol/kg bw
[2]
  Concentration required to potentiate the receptors: 3 µM
wild-type mice
  LD50: 27–34 ^b µmol/kg
wild-type mice; [8]
  LD50: around 30 mg/kg
[3]
  EC50: 0.0338 ± 0.0077 µM
  Emax: 414 ± 66.1%
[3]; co-application with 2 µM GABA
  Maximum potentiation of the GABA(A) receptor by IVM compared with MOX: ~2 fold
[3]; [9]
  Concentration to reach Emax: 0.49 µM
  Hill slope: 1.52±0.45
[3]; potentiation of current evoked by 2 µM GABA (EC10), listed as IVM
  Hill slope: 1.52
Acetylcholine receptors
  Concentration required to potentiate the receptors: 30 µM
[4]
  logP: 4.8

## CO/N=C1\C[C@]2(C[C@@H]3C[C@@H](C/C=C(\C)C[C@@H](C)/C=C/C=C4\CO[C@@H]5[C@H](O)C(C)=C[C@@H](C(=O)O3)[C@]45O)O2)O[C@H](/C(C)=C/C(C)C)[C@H]1C [Moxidectin]
P-gp-deficient dogs; P-gp-deficient Collie dogs, spot-on application
  Dose safely used: up to 32.5 mg/kg
P-gp-deficient dogs; P-gp-deficient dogs sensitive to IVM, 100 µg/kg daily for 7 days
  Signs of toxicosis: did not produce signs of toxicosis
P-gp-deficient dogs; dogs sensitive to 120 µg/kg oral IVM, similar molar dose rate, oral
  Toxicological signs: did not produce any toxicological signs
Mdr1ab(−/−) mice; 0.46 µmol/kg SC (same dose rate as IVM)
  Toxicity: did not show any toxicity
Mdr1ab(−/−) mice; 2 µmol/kg SC, 1 h post-treatment
  Neurological symptoms observed: Visually normal
Mdr1ab(−/−) mice; 2 µmol/kg SC, 2 h post-treatment (ditto marks to 4 h; transient), listed as MOX
  Neurological symptoms observed: rapid breathing was transiently observed
Mdr1ab(−/−) mice; 2 µmol/kg SC, 5 h post-treatment (ditto marks to 14 d)
  Neurological symptoms observed: Visually normal
Mdr1ab(−/−) mice; 2.6 µmol/kg SC, 1 h post-treatment (ditto marks to 3 h)
  Neurological symptoms observed: Visually normal
Mdr1ab(−/−) mice; 2.6 µmol/kg SC, 4 h post-treatment (ditto marks to 8 h)
  Neurological symptoms observed: Sleepiness
Mdr1ab(−/−) mice; 2.6 µmol/kg SC, 12 h post-treatment, mice euthanized
  Neurological symptoms observed: Ataxia ^c/Tremor ^d ^†
Mdr1ab(−/−) mice; 4 µmol/kg SC, 1 h post-treatment
  Neurological symptoms observed: Balance problems
Mdr1ab(−/−) mice; 4 µmol/kg SC, 2 h post-treatment (ditto marks to 4 h)
  Neurological symptoms observed: Sleepiness
Mdr1ab(−/−) mice; 4 µmol/kg SC, 5 h post-treatment, mice euthanized
  Neurological symptoms observed: Ataxia ^c/Coma ^†
Mdr1ab(−/−) mice
  Start of neurotoxic signs (lethargy, tremors and/or ataxia): 4 h
[5]; 2 h
  Brain-to-plasma concentration ratio: 0.3 ± 0.1 mL/g
  Drug concentration in brain: 18.8 ± 2.8 pmol/g
[5]; 2 h, listed as MOX
  Drug concentration in brain: 18.8 ± 2.8 pmol/g
[5]; 24 h
  Brain-to-plasma concentration ratio: 2.2 ± 0.7 mL/g
  Drug concentration in brain: 93.0 ± 28.9 pmol/g
  Drug concentration in plasma: 42.8 ± 9.3 nM
[5]; 24 h, listed as MOX
  Brain-to-plasma concentration ratio: 2.2 ± 0.7 mL/g
[5]; mouse, plasma, 2 h
  concentration at 2 h: 60 ± 14.5 nM
[5]; mouse, plasma, 24 h
  concentration at 24 h: 42.8 ± 9.3 nM
[1]
  LD50 at 14 days: 1.47 mg/kg and 2.3 µmol/kg
P-gp
  Effectiveness in inhibiting transport activity by P-gp, fold less than IVM: 10 fold
wild-type mice
  LD50: 70–131 ^b µmol/kg
wild-type mice; [8]
  LD50: 86 mg/kg
[6]
  Brain concentration at LD50: 740–1380 ^d pmol/g
  Brain-to-plasma ratio (slope of brain vs plasma concentration): 0.09 (R^2 = 0.984) ^e ml/g
[6]; listed as MOX
  Brain concentration at LD50: 740 to 1380 pmol/g
  Brain-to-plasma ratio (slope of brain vs plasma concentration): 0.09 mL/g
[3]
  EC50: 0.0118 ± 0.0092 µM
  Emax: 257 ± 40.6%
[3]; [9]
  Concentration to reach Emax: 0.66 ^c µM
  Hill slope: 0.34±0.56
[3]; potentiation of current evoked by 2 µM GABA (EC10), listed as MOX
  Hill slope: 0.34±0.56 and 0.34
[4]
  logP: 6
humans
  Serious adverse events: without evidence of any serious adverse events
[7]
  Brain concentration at LD50: 830 ^c pmol/g
  Brain-to-plasma ratio (slope of brain vs plasma concentration): 2.6 (R^2 = 0.936) ^e ml/g
[7]; listed as MOX
  Brain concentration at LD50: 830 pmol/g
  Brain-to-plasma ratio (slope of brain vs plasma concentration): 2.6 mL/g

## NCCCC(=O)O [GABA, γ-aminobutyric acid]
[3]; GABA alone, n = 12
  EC10 (concentration producing 10% of maximal response): 2.08 ± 1.18 µM
  Hill slope: 1.30±0.07 and 1.30±0.02
